9 compounds from patent publication US20240425523A1, “Compounds for the Degradation of EGFR Kinase” (Beigene Switzerland GMBH, priority 2023, published 2024) can be followed below.

Common to all, as to assay type: cell-based
Experiment [1] addresses p-EGFR Del19/C797S (H1975-clone #23 cells) (Homo sapiens, UniProt P00533). As to the kind of experiment: Cell p-EGFR inhibition assay, HTRF, H1975-clone#23 (DEL19/C797S) cells. The note with it: 16 h treatment; for Imax (%): maximum percentage of pEGFR inhibition; for IC50: pEGFR inhibition. The method, boiled down: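 Phospho-EGFR read by overnight HTRF on lysates, normalized to DMSO-treated high control; IC50, Hill slope and Imax fitted. Compounds were applied for 16 h (10 uM top, 5-fold steps, 8 doses) to an H1975 single clone carrying only exogenous Del19/C797S EGFR after sgRNA knockout of endogenous copies.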

For experiment [2], the target named is T1, EGFR-L858R/C797S (H1975-clone #8 cells) (Homo sapiens, UniProt P00533, C797S/L858R).
T1 construct: expressed in transfected cells; host or cells: H1975 (endogenous EGFR knocked out, clone #8)
Description: Cell degradation of EGFR, HTRF assay, H1975-clone#8 (L858R/C797S) cells. Conditions: 16 h treatment; for DC50: EGFR degradation; for Dmax: maximum percentage of degradation. For orientation: In TR-FRET formats the signal depends on donor and acceptor labels being close together.

Experiment [3] has as its target T2, p-EGFR L858R (BaF3-L858R cells) (Homo sapiens, UniProt P00533, L858R).
T2 construct: host or cells: BaF3
As to the kind of experiment: Cell p-EGFR inhibition assay, HTRF, BaF3-L858R cells. The note with it: 16 h treatment; for Imax (%): maximum percentage of pEGFR inhibition; for IC50: pEGFR inhibition. In outline:
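BaF3-L858R cells treated 16 h at 37 °C, 5% CO2 with compound from 10 uM top, 5-fold dilutions, 8 doses, in 0.1% DMSO medium. Lysates read overnight by HTRF p-EGFR antibodies; IC50 fitted to four-parameter curve against DMSO high control.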

Experiment [4] addresses T3, EGFR L858R (BaF3-L858R cells) (Homo sapiens, UniProt P00533, L858R).
T3 construct: host or cells: BaF3
As to the kind of experiment: Cell degradation of EGFR, HTRF assay, BaF3-L858R cells. Conditions: 16 h treatment; for DC50: EGFR degradation; for Dmax: maximum percentage of degradation. In outline:
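EGFR L858R levels measured by HTRF antibody pair in lysed BaF3-L858R cells after 16 h compound exposure (8-point 5-fold series from 10 uM final, 37° C). Degradation is relative to DMSO-only cells; DC50 fitted with Hill equation, Dmax taken as the largest percent loss.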

Structures are written as SMILES. Where only a bound is given, the exact number is not on record here.

For orientation: IC50 means the concentration that inhibits the measured activity by half. Read a high IC50 as a need for much substance. The DC50 is the midpoint of the concentration-degradation curve. Low values mean a more potent degrader, high ones a less potent degrader. A word on the Dmax: it is the largest share of the target that was removed. Lower therefore signals a partial loss of target.

`COCCn1nc(C)c2c1OC[C@H]1CC[C@H](C1)CN1/C(=N/C(=O)c3cc(C)nc-2c3)Nc2ccc(N3CCN(C4CCN(c5cc(F)c([C@H]6CCC(=O)NC6=O)c(F)c5)CC4)[C@@H](COC)C3)cc21` [Example 160, (R)-3-(2,6-difluoro-4-(4-((R)-4-((7^1R,7^3S,E)-1^1-(2-methoxyethyl)-1^3,2^6-dimethyl-3-oxo-5^2,5^3-dihydro-1^1H,5^1H-9-oxa-4-aza-5(2,1)-benzo[d]imidazola-2(2,4)-pyridina-1(4,5)-pyrazola-7(1,3)-cyclopentanacyclononaphane-5^6-yl)-2-(methoxymethyl)piperazin-1-yl)piperidin-1-yl)phenyl)piperidine-2,6-dione]: in experiment [1], the “Imax (%)” value is on record as 95.87% and inhibition was half-maximal at 0.59 nM (IC50). In experiment [2], this compound yielded a DC50 of 3.01 nM and a Dmax of 88.2%. For the same compound, in experiment [3], the “Imax (%)” value is reported as 94.19% and the IC50 was 3.02 nM. Besides, in experiment [4], it took 3.08 nM to reach half-maximal degradation (DC50) and the Dmax stood at 76.5%.
Take `Cc1cc2cc(n1)-c1c(C)nn(C)c1OC[C@H]1CC[C@H](C1)CN1/C(=N/C2=O)Nc2ccc(N3CCN(CC4CN(c5cc(F)c([C@H]6CCC(=O)NC6=O)c(F)c5)C4)CC3)cc21` [Example 199, (R)-3-(2,6-difluoro-4-(3-((4-((7^1R,7^3S,E)-1^1,1^3,2^6-trimethyl-3-oxo-5^2,5^3-dihydro-1^1H,5^1H-9-oxa-4-aza-5(2,1)-benzo[d]imidazola-2(2,4)-pyridina-1(4,5)-pyrazola-7(1,3)-cyclopentanacyclononaphane-5^6-yl)piperazin-1-yl)methyl)azetidin-1-yl)phenyl)piperidine-2,6-dione]: in experiment [1], the “Imax (%)” value is on record as 102.91% and the IC50 was 2.92 nM. In experiment [2], this compound had a DC50 of 2.28 nM and a Dmax of 91.8%. In addition, in experiment [3], the “Imax (%)” value amounted to 99.05% and the IC50 was less than 0.128 nM. Moreover, in experiment [4], the DC50 is 6.02 nM and the Dmax is 82.5%.
For the compound `COC[C@@H]1CN(c2ccc3c(c2)N2C[C@@H]4CC[C@H](COc5c(cnn5C)-c5cc(cc(C)n5)C(=O)/N=C/2N3)C4)CCN1CC1CN(c2ccc3c(c2)CN(C2CCC(=O)NC2=O)C3=O)C1` (stereo partly drawn) [Example 63, 3-(5-(3-(((S)-4-((7^1R,7^3S,E)-1^1,2^6-dimethyl-3-oxo-5^2,5^3-dihydro-1^1H,5^1H-9-oxa-4-aza-5(2,1)-benzo[d]imidazola-2(2,4)-pyridina-1(4,5)-pyrazola-7(1,3)-cyclopentanacyclononaphane-5^6-yl)-2-(methoxymethyl)piperazin-1-yl)methyl)azetidin-1-yl)-1-oxoisoindolin-2-yl)piperidine-2,6-dione], the “Imax (%)” value in experiment [1] is given as 100.6%; in experiment [3], 103%. For the same compound, the IC50 in experiment [1] and in experiment [3] was 0.2 nM throughout. The values for the DC50 in experiment [2] and in experiment [4] were 0.61 nM and 0.55 nM, respectively. The Dmax in experiment [2] was found to be 60.9%; in experiment [4], 90%.
In the case of `CC[C@@H]1CN(c2ccc3c(c2)N2C[C@@H]4CC[C@H](COc5c(c(C)nn5C)-c5cc(cc(C)n5)C(=O)/N=C/2N3)C4)CCN1C1CCN(c2cc(F)c([C@H]3CCC(=O)NC3=O)c(F)c2)CC1` [Example 188, (R)-3-(4-(4-((R)-2-ethyl-4-((7^1R,7^3S,E)-1^1,1^3,2^6-trimethyl-3-oxo-5^2,5^3-dihydro-1^1H,5^1H-9-oxa-4-aza-5(2,1)-benzo[d]imidazola-2(2,4)-pyridina-1(4,5)-pyrazola-7(1,3)-cyclopentanacyclononaphane-5^6-yl)piperazin-1-yl)piperidin-1-yl)-2,6-difluorophenyl)piperidine-2,6-dione], the figures for the “Imax (%)” value in experiment [1] and in experiment [3] were 99.79% and 90.67%, respectively. Also, the IC50 in experiment [1] is 1.95 nM; in experiment [3], less than 0.128 nM. In addition, the DC50 is 3.78 nM in experiment [2] and 4.2 nM in experiment [4]. The values for the Dmax in experiment [2] and in experiment [4] were 84.9% and 93.2%, respectively.
As for `Cc1cc2cc(n1)-c1c(C)nn(C)c1OC[C@H]1CC[C@H](C1)CN1/C(=N/C2=O)Nc2ccc(N3CC(N(C)C4CCN(c5cc(F)c([C@H]6CCC(=O)NC6=O)c(F)c5)CC4)C3)cc21` [Example 153, (R)-3-(2,6-difluoro-4-(4-(methyl(1-((7^1R,7^3S,E)-1^1,1^3,2^6-trimethyl-3-oxo-5^2,5^3-dihydro-1^1H,5^1H-9-oxa-4-aza-5(2,1)-benzo[d]imidazola-2(2,4)-pyridina-1(4,5)-pyrazola-7(1,3)-cyclopentanacyclononaphane-5^6-yl)azetidin-3-yl)amino)piperidin-1-yl)phenyl)piperidine-2,6-dione], in experiment [1], the “Imax (%)” value is given as 100.23% and the IC50 worked out at 1.56 nM. In experiment [2], the DC50 is 2.92 nM and the Dmax was found to be 87%. Besides, in experiment [3], the “Imax (%)” value is reported as 97.42% and the IC50 is 11.1 nM. In experiment [4], this compound returned a DC50 of 2.8 nM and a Dmax of 84.4%.
Take `COC[C@@H]1CN(c2ccc3c(c2)N2CC4CC[C@H](COc5c(c(C(F)F)nn5C)-c5cc(cc(C)n5)C(=O)/N=C/2N3)C4)CCN1C1CCN(c2cc(F)c([C@H]3CCC(=O)NC3=O)c(F)c2)CC1` [Example 85, (R)-3-(4-(4-((S)-4-((7^1R,7^3S,E)-1^3-(difluoromethyl)-1^1,2^6-dimethyl-3-oxo-5^2,5^3-dihydro-1^1H,5^1H-9-oxa-4-aza-5(2,1)-benzo[d]imidazola-2(2,4)-pyridina-1(4,5)-pyrazola-7(1,3)-cyclopentanacyclononaphane-5^6-yl)-2-(methoxymethyl)piperazin-1-yl)piperidin-1-yl)-2,6-difluorophenyl)piperidine-2,6-dione]: the “Imax (%)” value is 99.7% in experiment [1] and 97.5% in experiment [3]. Moreover, the results for the IC50 in experiment [1] and in experiment [3] were 3.1 nM and 11.6 nM, respectively. Further, the values for the DC50 in experiment [2] and in experiment [4] were 4.91 nM and 4.23 nM, respectively. The Dmax in experiment [2] turned out to be 83%; in experiment [4], 78%.
In the case of `COC[C@H]1CN(c2ccc3c(c2)N2CC4CC[C@H](COc5c(c(C(F)(F)F)nn5C)-c5cc(cc(C)n5)C(=O)/N=C/2N3)C4)CCN1C1CCN(c2cc(F)c([C@H]3CCC(=O)NC3=O)c(F)c2)CC1` [Example 95, (R)-3-(4-(4-((R)-4-((7^1R,7^3S,E)-1^1,2^6-dimethyl-3-oxo-1^3-(trifluoromethyl)-5^2,5^3-dihydro-1^1H,5^1H-9-oxa-4-aza-5(2,1)-benzo[d]imidazola-2(2,4)-pyridina-1(4,5)-pyrazola-7(1,3)-cyclopentanacyclononaphane-5^6-yl)-2-(methoxymethyl)piperazin-1-yl)piperidin-1-yl)-2,6-difluorophenyl)piperidine-2,6-dione], in experiment [1], the “Imax (%)” value was determined as 101% and half-maximal inhibition (IC50) required 4.5 nM. Moreover, in experiment [2], the DC50 worked out at 12.1 nM and the Dmax was found to be 79%. Besides, in experiment [3], the “Imax (%)” value was found to be 99.3% and the IC50 was found to be 10.8 nM. In experiment [4], the DC50 amounted to 8.5 nM and the Dmax turned out to be 86.5%.
For `Cc1cc2cc(n1)-c1c(C)nn(C)c1OC[C@H]1CC[C@H](C1)CN1/C(=N/C2=O)Nc2ccc(N3C[C@H](C)N(C4CCN(c5cc(F)c([C@H]6CCC(=O)NC6=O)c(F)c5)CC4)C[C@@H]3C)cc21` [Example 197, (R)-3-(4-(4-((2S,5S)-2,5-dimethyl-4-((7^1R,7^3S,E)-1^1,1^3,2^6-trimethyl-3-oxo-5^2,5^3-dihydro-1^1H,5^1H-9-oxa-4-aza-5(2,1)-benzo[d]imidazola-2(2,4)-pyridina-1(4,5)-pyrazola-7(1,3)-cyclopentanacyclononaphane-5^6-yl)piperazin-1-yl)piperidin-1-yl)-2,6-difluorophenyl)piperidine-2,6-dione], in experiment [1], the “Imax (%)” value amounted to 103.49% and inhibition was half-maximal at 3.38 nM (IC50). In experiment [2], this compound registered a DC50 of 7.24 nM and a Dmax of 89.7%. Also, in experiment [3], the “Imax (%)” value is recorded as 101.23% and it took 9.16 nM to reach half-maximal inhibition (IC50). In experiment [4], this compound yielded a half-maximal degradation concentration (DC50) of 8.79 nM and a Dmax of 74%.
For the compound `Cc1cc2cc(n1)-c1c(C)nn(C)c1OC[C@H]1CC[C@H](C1)CN1/C(=N/C2=O)Nc2ccc(N3CCN(C4CCN(c5cc(F)c([C@H]6CCC(=O)NC6=O)c(F)c5)CC4)[C@H](C)C3)cc21` [Example 192, (R)-3-(2,6-difluoro-4-(4-((R)-2-methyl-4-((7^1R,7^3S,E)-1^1,1^3,2^6-trimethyl-3-oxo-5^2,5^3-dihydro-1^1H,5^1H-9-oxa-4-aza-5(2,1)-benzo[d]imidazola-2(2,4)-pyridina-1(4,5)-pyrazola-7(1,3)-cyclopentanacyclononaphane-5^6-yl)piperazin-1-yl)piperidin-1-yl)phenyl)piperidine-2,6-dione], in experiment [1], the “Imax (%)” value is 99.96% and half-maximal inhibition (IC50) required 1.39 nM. Moreover, in experiment [2], it took 1.01 nM to reach half-maximal degradation (DC50) and the Dmax was 88.8%. For the same compound, in experiment [3], the “Imax (%)” value was determined as 89.34% and the IC50 was 1.53 nM. In experiment [4], this compound registered a DC50 of 2.42 nM and a Dmax of 87.9%.
